Experimental data reported in patent US20070128596A1, “Reagents and methods for identifying and modulating expression of tumor senescence genes” (priority 2002, published 2007).

Experiments:
Type in all cases: cell-based, human
[1] = tested on: HCT116 colon carcinoma cells; experiment: FACS analysis of cell division by PKH2 fluorescence after doxorubicin treatment; conditions: 200 nM doxorubicin 24 hr
Method: (§1) HCT116 colon carcinoma cells (Myohanen et al., 1998, Cancer Res. 58: 591-593; Accession No. CCL-247, American Type Culture Collection, Manassas, Va.), including wild-type, p21−/− (clone 80S4) and p53−/− (clone 379.2) cell lines (a gift of Dr. B. Vogelstein, Johns Hopkins University) were grown in Dulbecco Modified Eagle Medium with 10% FC2 serum. Cells were plated at 5×10^6 cells per 15-cm plate and treated for 24-hr with 200 nM doxorubicin. Thereafter, cells were allowed to recover in drug-free media up to 10 days. For fluorescence-activated cell sorter (FACS) analysis of cell division, cells were labeled with PKH2 (a lipophilic fluorophore; Sigma Chemical Co., St. Louis, Mo.), which stably incorporates into the plasma membrane and distributes evenly between daughter cells, resulting in gradual decrease in PKH2 fluorescence during consequent cell divisions (Horan et al., 1989, Nature 340: 167-168). FACS analysis and cell sorting carried out as described in Chang et al. (1999, Cancer Res. 59: 3761-3767 and 1999, Oncogene 18: 4808-4818). Sorted fractions of senescent (pKH2^hi) and proliferating (PKH2^lo) cells (90-95% purity) were analyzed for DNA content using propidium iodide (PI) staining and FACS analysis as described by Jordan et al. (1996, Cancer Res. 56: 816-825). […]
Changes in PKH2 fluorescence were monitored by FACS on different days after doxorubicin treatment. […]

[2] = tested on: HCT116 colon carcinoma cells; experiment: DNA content analysis by propidium iodide staining and FACS; conditions: PKH2hi fraction after 200 nM doxorubicin 24 hr
Method: as §1

[3] = tested on: HCT116 colon carcinoma cells; experiment: Senescence-associated β-galactosidase (SA-β-gal) staining; conditions: PKH2hi fraction after 200 nM doxorubicin 24 hr
Method: as §1

[4] = tested on: HCT116 colon carcinoma cells; experiment: Clonogenicity of sorted populations (colony formation); conditions: PKH2hi fraction separated after doxorubicin treatment
Method: as §1

p21 = experiment: Immunoblotting of p53 and p21 in wild type, p21−/− and p53−/− HCT116 cell lines treated with doxorubicin; conditions: wild type vs p53−/− and p21−/− HCT116
Method: (§2) In these experiments, poly(A)^+ RNA and protein extracts were prepared from PKH2^lo and PKH2^hi cell populations, separated in different experiments 6, 9 or 10 days after release from doxorubicin. Fluorescent cDNA probes were synthesized and used for hybridization with the Human UniGEM V 2.0 cDNA microarray and signal analysis (assays were conducted by IncyteGenomics, St. Louis, Mo., as described at that company's web site, www.incyte.com). Changes in gene expression were verified by semi-quantitative reverse transcription-PCR (RT-PCR), essentially as described (Noonan et al., 1990, Proc. Natl. Acad. Sci. USA 87: 7160-7164), using β-actin as an internal normalization standard and the oligonucleotide primers shown in Table 3. RT-PCR analysis was carried out using two pairs of proliferating- and senescent-cell RNA preparations isolated in independent experiments, with the same results; for a subset of the genes, the assays were reproduced with the same pair of RNA samples. […] Bands were detected using horseradish peroxidase-labeled secondary antibodies and ECL chemiluminescence detection kit (Amersham Pharmacia Biotech, Piscataway, N.J.).

[5] = tested on: senescence-associated genes in HCT116 cells; experiment: RT-PCR of senescence-associated gene expression in wild type, p21−/− and p53−/− HCT116 cells upon doxorubicin treatment
Method: as §2
To elucidate the roles of p53 and p21 in the observed changes in gene expression, expression of senescence-associated genes upon doxorubicin treatment of wild type, p21−/− and p53−/− HCT116 cells was analyzed. RNA samples were isolated before the addition of the drug, immediately after one-day treatment with doxorubicin, and on three consecutive days after the removal of the drug.

Maspin = experiment: Immunoblotting of protein products of senescence-associated genes in doxorubicin-treated HCT116 cells
Method: as §2

COc1cccc2c1C(=O)c1c(O)c3c(c(O)c1C2=O)C[C@@](O)(C(=O)CO)C[C@@H]3O[C@H]1C[C@H](N)[C@H](O)[C@H](C)O1 [doxorubicin]
day on which a proliferating cell population (PKH2lo) emerged ([1]; days after treatment): 4 days | growth arrest of PI-negative cells (PKH2 fluorescence) ([1]; first 2-3 days after treatment): remained growth-arrested | cell cycle phase of PKH2hi cells (DNA content) [2]: remained in G2 | SA-β-gal staining of PKH2hi cells [3]: stained positively for SA-β-gal | colony formation by PKH2hi cells [4]: have lost their proliferative capacity | p21 protein induction, dependence on p53 (p21): strongly dependent on p53 | Maspin induction in p53−/− cells ([5]; p53−/− HCT116): still readily detectable in p53−/− cells | BTG2 induction in p53−/− cells ([5]; p53−/− vs wild type HCT116): inducible by doxorubicin in p53−/− cells, albeit to a lesser degree than in the wild type cells | EPLIN induction in the unsorted cells ([5]; unsorted HCT116 cells, compared with the other growth-inhibitory genes): weakest induction | Amphiregulin induction, dependence on p53 ([5]; wild type vs p53−/− HCT116): only moderate dependence on p53 | BTG1 induction, dependence on p53 ([5]; wild type vs p53−/− HCT116): independent of p53 | IGFBP-6 induction, dependence on p53 ([5]; wild type vs p53−/− HCT116): no dependence on p53 | MIC-1 induction, dependence on p53 ([5]; wild type vs p53−/− HCT116): only weak dependence on p53 | Maspin induction at the protein level (Maspin): very strong induction
